# From patent US8501770B2 (ArQule, Inc., priority 2009, dated 2013)
# Read-outs that look alike come from different tables or passages of the source.
# Molecular target: Full-length inactive AKT1 (Homo sapiens, UniProt P31749)
# Assay: Inactive Akt Alpha Screen Assay
# Format: biochemical
# Details: read-out: Akt1 IC50, (AlphaScreen)
# Summary of the method: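 AlphaScreen read-out (excitation 640 nm, emission 570 nm) after 90 min incubation at room temperature in the dark. Signal comes from crosstide phosphorylation by AKT1, which was activated by added PDK1, MAPKAPK2, ATP and lipid vesicles, captured via phospho-AKT substrate antibody and streptavidin beads.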
# [1] = values not marked with "*": AlphaScreen assay
# Chain of Full-length inactive AKT1 (P31749 whole entry): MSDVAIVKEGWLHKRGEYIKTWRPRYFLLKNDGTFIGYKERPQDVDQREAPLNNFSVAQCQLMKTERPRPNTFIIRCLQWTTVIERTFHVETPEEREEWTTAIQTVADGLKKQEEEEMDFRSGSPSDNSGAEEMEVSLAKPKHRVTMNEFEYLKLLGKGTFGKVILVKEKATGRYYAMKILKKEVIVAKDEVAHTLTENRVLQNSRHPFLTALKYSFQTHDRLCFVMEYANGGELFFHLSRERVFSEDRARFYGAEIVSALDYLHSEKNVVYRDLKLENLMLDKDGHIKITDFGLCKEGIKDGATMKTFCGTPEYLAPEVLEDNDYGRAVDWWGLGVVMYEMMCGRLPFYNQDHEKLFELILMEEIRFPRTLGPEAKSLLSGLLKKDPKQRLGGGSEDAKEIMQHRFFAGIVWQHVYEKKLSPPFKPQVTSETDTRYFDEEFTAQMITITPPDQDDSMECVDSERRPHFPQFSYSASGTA
SMILES,"IC50 (values not marked with ""*"") [nM]",IC50 [1] [nM]
"Nc1ncccc1-c1nc2ccc(Cl)nc2n1-c1ccc(CNC(=O)c2cccc(F)c2)cc1 [Example 203, N-(4-(2-(2-aminopyridin-3-yl)-5-chloro-3H-imidazo[4,5-b]pyridin-3-yl)benzyl)-3-fluorobenzamide]",81,–
Cn1c(NC(=O)Cc2ccc(-n3c(-c4cccnc4N)nc4cccnc43)cc2)nc2ccccc21 [Example 114],–,579
"COC(=O)c1cccc(C(=O)NCc2ccc(-n3c(-c4cccnc4N)nc4cc(C)cnc43)cc2)c1 [Example 270, methyl 3-((4-(2-(2-aminopyridin-3-yl)-6-methyl-3H-imidazo[4,5-b]pyridin-3-yl)benzyl)carbamoyl)benzoate]",240,–
"CC(=O)Nc1ccc(-c2cnc3c(c2)nc(-c2cccnc2N)n3-c2ccc(CNC(=O)c3ccccc3)cc2)cc1 [Example 197, N-(4-(6-(4-acetamidophenyl)-2-(2-aminopyridin-3-yl)-3H-imidazo[4,5-b]pyridin-3-yl)benzyl)benzamide]",47,–
"Cc1cnc2c(c1)nc(-c1cccnc1N)n2-c1ccc(CNC(=O)c2cnccn2)cc1 [Example 285, N-(4-(2-(2-aminopyridin-3-yl)-6-methyl-3H-imidazo[4,5-b]pyridin-3-yl)benzyl)pyrazine-2-carboxamide]",850,–
Nc1ncccc1-c1nc2cccnc2n1-c1ccc(CNC(=O)c2cccnc2)cc1 [Example 12],–,211
"Nc1ncccc1-c1nc2cc(Br)cnc2n1-c1ccc(CNS(=O)(=O)c2c(F)cccc2F)cc1 [Example 159, N-{4-[2-(2-aminopyridin-3-yl)-6-bromo-3H-imidazo[4,5-b]pyridin-3-yl]benzyl}-2,6-difluorobenzenesulfonamide]",200,–
"Cc1ccc2nc(-c3cccnc3N)n(-c3ccc(CC(=O)Nc4ccccc4)cc3)c2n1 [Example 301, 2-(4-(2-(2-aminopyridin-3-yl)-5-methyl-3H-imidazo[4,5-b]pyridin-3-yl)phenyl)-N-phenylacetamide]",66,–
"COc1ccc(S(=O)(=O)NCc2ccc(-n3c(-c4cccnc4N)nc4cc(Br)cnc43)cc2)cc1OC [Example 148, N-{4-[2-(2-aminopyridin-3-yl)-6-bromo-3H-imidazo[4,5-b]pyridin-3-yl]benzyl}-3,4-dimethoxybenzenesulfonamide]",–,240
"Cc1cnc2c(c1)nc(-c1cccnc1N)n2-c1ccc(CNC(=O)c2cccnc2F)cc1 [Example 274, N-(4-(2-(2-aminopyridin-3-yl)-6-methyl-3H-imidazo[4,5-b]pyridin-3-yl)benzyl)-2-fluoronicotinamide]",51000,–

# Further lines, results first:
"IC50 (values not marked with ""*"") [nM]",IC50 [1] [nM],SMILES
2.3,–,"Nc1ncccc1-c1nc2ccc(-c3cccc(N4CCOCC4)c3)nc2n1-c1ccc(C2(N)CCC2)cc1 [Example 390, 3-(3-(4-(1-aminocyclobutyl)phenyl)-5-(3-morpholinophenyl)-3H-imidazo[4,5-b]pyridin-2-yl)pyridin-2-amine]"
55,–,"Nc1ncccc1-c1nc2cc(-c3ccccc3)cnc2n1-c1ccc(C2(N)CCC2)cc1 [Example 358, 3-(3-(4-(1-aminocyclobutyl)phenyl)-6-phenyl-3H-imidazo[4,5-b]pyridin-2-yl)pyridin-2-amine]"
270,–,"CC(C)(C)OC(=O)NCc1ccc(-n2c(-c3cccnc3N)nc3ccc(-c4ccccc4)nc32)cc1 [Example 355, tert-butyl 4-(2-(2-aminopyridin-3-yl)-5-phenyl-3H-imidazo[4,5-b]pyridin-3-yl)benzylcarbamate]"
290,–,"Nc1ncccc1-c1nc2ccc(-c3ccccc3)nc2n1-c1ccc(C2(C(=O)NCCO)CCC2)cc1 [Example 379, 1-(4-(2-(2-aminopyridin-3-yl)-5-phenyl-3H-imidazo[4,5-b]pyridin-3-yl)phenyl)-N-(2-hydroxyethyl)cyclobutanecarboxamide]"
5.8,–,"COc1cc(-c2ccc3nc(-c4cccnc4N)n(-c4ccc(C5(N)CCC5)cc4)c3n2)ccc1F [Example 428, 3-{3-[4-(1-aminocyclobutyl)phenyl]-5-(4-fluoro-3-methoxyphenyl)-3H-imidazo[4,5-b]pyridin-2-yl}pyridin-2-amine]"
